This note sets out measurements from patent US12600713B2, “Crystalline forms of 6-((6,7-dimethoxyquinazolin-4-yl)oxy)-N,2-dimethylbenzofuran-3-carboxamide” (HUTCHMED LIMITED, priority 2014, dated 2026).

The data set can be described thus: Stability of Form I under high temperature, high humidity and illumination conditions (influence factor experiment, 10 days). Format: physicochemical. On the procedure: Determination method: the test sample of Form I prepared in Example 1 was added to a culture dish, which was uncovered and put in a sealed clean container; then the container was placed under the conditions of the temperature of 60° C., the temperature of 25° C. and the relative humidity of 92.5%±5%, and the illumination of 4500 lx±500 lx respectively for 10 days; then sampled, investigated the purity and crystalline form of the sample, and compared the results of the investigation, which were shown in the following table.

Turning to `CNC(=O)c1c(C)oc2cc(Oc3ncnc4cc(OC)c(OC)cc34)ccc12` [Form I, 6-((6,7-dimethoxyquinazolin-4-yl)oxy)-N,2-dimethylbenzofuran-3-carboxamide], the “Purity A%” value runs as follows: (0 day (initial sample, Form I of Example 1)) 98.94 A%; (25° C., relative humidity 92.5 ± 5% RH, open dish, 10 days) 98.94 A%; (60° C., open dish, 10 days) 98.94 A%; (illumination 4500 lx ± 500 lx, open dish, 10 days) 98.94 A%. The “chemical purity and crystalline form after storage (stability conclusion)” value (high temperature, high humidity and illumination conditions for 10 days) is given as “not changed”.
